# US20100092526A1, “NANOEMULSION THERAPEUTIC COMPOSITIONS AND METHODS OF USING THE SAME” (NanoBio Corporation, priority 2008, published 2010)
# Where two headings read alike, the source gives them in different places.
# Legend:
# [1] = test system: Pseudomonas aeruginosa; test: MIC/MBC against CF isolates (CLSI, alamar blue)
# [2] = test system: Acinetobacter baumannii; test: MIC/MBC against clinical isolates (CLSI, alamar blue); conditions: Acinetobacter baumannii
# [3] = Pseudomonas aeruginosa, CF Pseudomonas isolate NB1
# [4] = Pseudomonas aeruginosa, CF Pseudomonas isolate NB2
# [5] = Pseudomonas aeruginosa, CF Pseudomonas isolate NB3
# [6] = Pseudomonas aeruginosa, CF Pseudomonas isolate NB4
# [7] = Pseudomonas aeruginosa, CF Pseudomonas isolate NB5
# [8] = Pseudomonas aeruginosa, CF Pseudomonas isolate NB6
# [9] = Pseudomonas aeruginosa, CF Pseudomonas isolate NB7
# [10] = Pseudomonas aeruginosa, CF Pseudomonas isolate NB8
# [11] = Pseudomonas aeruginosa, CF Pseudomonas isolate NB9
# [12] = Pseudomonas aeruginosa, CF Pseudomonas isolate NB10
# [13] = Pseudomonas aeruginosa, CF Pseudomonas isolate NB11
# [14] = Pseudomonas aeruginosa, CF Pseudomonas isolate NB12
# [15] = Pseudomonas aeruginosa, CF Pseudomonas isolate NB13
# [16] = Pseudomonas aeruginosa, CF Pseudomonas isolate NB14
# [17] = Pseudomonas aeruginosa, CF Pseudomonas isolate NB15
# [18] = Pseudomonas aeruginosa, CF Pseudomonas isolate NB16
# [19] = Pseudomonas aeruginosa, CF Pseudomonas isolate NB17
# [20] = Pseudomonas aeruginosa, CF Pseudomonas isolate NB18
# [21] = Pseudomonas aeruginosa, CF Pseudomonas isolate NB19
# [22] = Pseudomonas aeruginosa, CF Pseudomonas isolate NB20
structure (smiles),measurement,setting,value
CO[C@@]1(NC(=O)Cc2cccs2)C(=O)N2C(C(=O)O)=C(COC(N)=O)CS[C@@H]21 [Cefoxitin],MBC 90,[1]; 20 CF Pseudomonas isolates,>256 µg/mL
same,MIC50,[1]; Pseudomonas aeruginosa,> 256 µg/mL
same,MIC90,[1]; Pseudomonas aeruginosa,> 256 µg/mL
same,MBC,[1]; [3],> 256 µg/mL
same,MIC,[1]; [3],> 256 µg/mL
same,MBC,[1]; [4],> 256 µg/mL
same,MIC,[1]; [4],> 256 µg/mL
same,MBC,[1]; [5],> 256 µg/mL
same,MIC,[1]; [5],> 256 µg/mL
same,MBC,[1]; [6],> 256 µg/mL
same,MIC,[1]; [6],> 256 µg/mL
same,MBC,[1]; [7],> 256 µg/mL
same,MIC,[1]; [7],> 256 µg/mL
same,MBC,[1]; [8],> 256 µg/mL
same,MIC,[1]; [8],> 256 µg/mL
same,MBC,[1]; [9],> 256 µg/mL
same,MIC,[1]; [9],> 256 µg/mL
same,MBC,[1]; [10],> 256 µg/mL
same,MIC,[1]; [10],> 256 µg/mL
same,MBC,[1]; [11],> 256 µg/mL
same,MIC,[1]; [11],> 256 µg/mL
same,MBC,[1]; [12],> 256 µg/mL
same,MIC,[1]; [12],> 256 µg/mL
same,MBC,[1]; [13],> 256 µg/mL
same,MIC,[1]; [13],> 256 µg/mL
same,MBC,[1]; [14],> 256 µg/mL
same,MIC,[1]; [14],> 256 µg/mL
same,MBC,[1]; [15],> 256 µg/mL
same,MIC,[1]; [15],> 256 µg/mL
same,MBC,[1]; [16],> 256 µg/mL
same,MIC,[1]; [16],> 256 µg/mL
same,MBC,[1]; [17],> 256 µg/mL
same,MIC,[1]; [17],> 256 µg/mL
same,MBC,[1]; [18],> 256 µg/mL
same,MIC,[1]; [18],> 256 µg/mL
same,MBC,[1]; [19],> 256 µg/mL
same,MIC,[1]; [19],> 256 µg/mL
same,MBC,[1]; [20],> 256 µg/mL
same,MIC,[1]; [20],> 256 µg/mL
same,MBC,[1]; [21],> 256 µg/mL
same,MIC,[1]; [21],> 256 µg/mL
same,MBC,[1]; [22],> 256 µg/mL
same,MIC,[1]; [22],> 256 µg/mL
same,MBC,"[1]; Pseudomonas aeruginosa, read-out: MBC 50, 20 CF Pseudomonas isolates",> 256 µg/mL
same,MBC,"[1]; Pseudomonas aeruginosa, read-out: MBC 50, second MBC 50 line of the summary, Stenotrophomonas, values equal those of the CF Pseudomonas isolates",> 256 µg/mL
same,MIC50,[2],> 256 µg/mL
same,MIC90,[2],> 256 µg/mL
same,MBC,[2]; Acinetobacter isolate NB31,> 256 µg/mL
same,MIC,[2]; Acinetobacter isolate NB31,> 256 µg/mL
same,MBC,[2]; Acinetobacter isolate NB32,256 µg/mL
same,MIC,[2]; Acinetobacter isolate NB32,256 µg/mL
same,MBC,[2]; Acinetobacter isolate NB33,> 256 µg/mL
same,MIC,[2]; Acinetobacter isolate NB33,> 256 µg/mL
same,MBC,[2]; Acinetobacter isolate NB34,> 256 µg/mL
same,MIC,[2]; Acinetobacter isolate NB34,> 256 µg/mL
same,MBC,[2]; Acinetobacter isolate NB35,> 256 µg/mL
same,MIC,[2]; Acinetobacter isolate NB35,> 256 µg/mL
